Measurements taken from PubChem BioAssay (NCI).
“And” between values parts separate entries of the source, which are not always exact repeats. Equal values may be shown once.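 The compound was tested at five concentrations on cells cultured in 96-well plates, with a 48-hour exposure period. Abbreviation: GI50, concentration required for 50% inhibition of growth. At the TGI there is no net growth.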

What was measured:
Experiment in all cases: NCI anticancer screen, dose series, 48 h
HL-60(TB) leukemia = test system: HL-60(TB) leukemia
K-562 leukemia = test system: K-562 leukemia
KM12 colon = test system: KM12 colon
OVCAR-5 ovarian = test system: OVCAR-5 ovarian
RPMI-8226 leukemia = test system: RPMI-8226 leukemia
SF-539 CNS = test system: SF-539 CNS
T-47D breast = test system: T-47D breast
IGROV1 ovarian = test system: IGROV1 ovarian

Row | SMILES | GI50 (HL-60(TB) leukemia) | TGI (HL-60(TB) leukemia) | GI50 (K-562 leukemia) | TGI (K-562 leukemia) | GI50 (KM12 colon) | TGI (KM12 colon) | GI50 (OVCAR-5 ovarian) | TGI (OVCAR-5 ovarian) | GI50 (RPMI-8226 leukemia) | TGI (RPMI-8226 leukemia) | GI50 (SF-539 CNS) | TGI (SF-539 CNS) | GI50 (T-47D breast) | TGI (T-47D breast) | GI50 (IGROV1 ovarian) | TGI (IGROV1 ovarian)
1 | O=c1nc2n(-c3ccc(Cl)cc3)c3ccc([N+](=O)[O-])cc3cc-2c(=O)[nH]1 | 9.55 µM | > 100 µM | 32.6 µM | > 100 µM | 5.06 µM | 20 µM | 28.8 µM | 73.8 µM | 12.3 µM | 47.7 µM | 22.5 µM | 53.9 µM | 18.3 µM | 43.1 µM |  | 
2 | O=C(CN1CCN(CCCOc2c(-c3ccccc3)oc3ccccc3c2=O)CC1)Nc1ccc(Cl)cc1C(=O)c1ccccc1Cl | > 100 µM | > 100 µM | 4.18 µM | > 100 µM | 5.73 µM | 29.9 µM | 27.2 µM | 90.8 µM | 2.59 µM | 7.14 µM | 6.68 µM | 22.2 µM | 6.7 µM | 33.9 µM | 6.16 µM | 47.3 µM
3 | O=C(CNc1ccc2c(c1)C(=O)c1ccccc1C2=O)Nc1ccc2c(c1)C(=O)c1ccccc1C2=O | 1.57 µM | 4.35 µM |  |  | 1.4 µM | 2.73 µM | 1.84 µM | 3.4 µM | 0.957 µM | 3.46 µM | 1.78 µM | 3.46 µM | 0.604 µM | 2.32 µM | 0.681 µM | 2.7 µM
4 | CCOC(=O)c1[nH]c(Br)c(-c2ccc(Br)cc2)c1Br | 0.207 µM | 0.596 µM | 0.193 µM | 1.12 µM | 0.302 µM | 16 µM | 5.77 µM | > 100 µM | 0.357 µM | 3.92 µM | 0.298 µM | 1.85 µM and 0.858 µM | 2.66 µM | 65.7 µM | 0.851 µM | 6.34 µM
5 | COc1ncc(-c2ccc3nccc(-c4ccnnc4)c3c2)cc1NS(=O)(=O)c1ccc(F)cc1F | 0.0224 µM and < 0.01 µM | > 4.01 µM and 1.21 µM |  | > 100 µM | 0.033 µM and 0.0302 µM | 1.53 µM and 1.58 µM | 0.00728 µM and < 0.01 µM | > 10 µM and 2.76 µM | 0.0321 µM and 0.0297 µM | 0.656 µM and 0.963 µM | 0.00746 µM and < 0.01 µM | 0.0587 µM and 0.0468 µM |  | 0.00428 µM | < 0.01 µM | 0.00752 µM and < 0.01 µM
6 | O=C(/C=C/c1cccnc1)NCCCCC1CCCN(C(=O)c2ccccc2)C1 (configuration not stated) | 44.7 µM | > 100 µM | < 0.01 µM | > 100 µM | < 0.0357 µM | > 100 µM |  | > 100 µM | < 0.01 µM | > 100 µM | < 0.01 µM | > 100 µM | < 0.01 µM | > 100 µM | 0.0615 µM | > 100 µM
7 | COc1ccccc1CCN=C1NC(=O)/C(=C/c2ccc3ncccc3c2)S1 | 4.2 µM | 14.7 µM | 1.37 µM | > 25 µM | 3.34 µM | > 25 µM | 7.06 µM | > 23.1 µM | 4.33 µM | 19.6 µM | 4.48 µM | 15.7 µM | 6.76 µM | > 23.1 µM | 4.87 µM | 19.6 µM
8 | COc1cc(C)c(Cl)cc1C1=NN(c2ccc(S(N)(=O)=O)cc2)C(/C=C/c2ccccc2)C1 (configuration not stated) | 3.6 µM | 16 µM | 5.29 µM | > 100 µM | 3.4 µM | 14.8 µM | 4.04 µM | 57.3 µM | 2.76 µM | 7.93 µM | 4.26 µM | 17 µM | 3.34 µM | 16 µM | 4.15 µM | 43.9 µM
9 | Cc1ccc(/C=C2/SC(Nc3nc(-c4csc(NC5=NC(=O)/C(=C\c6ccc(C)cc6)S5)n4)cs3)=NC2=O)cc1 | 2.03 µM | 29.9 µM | 1.91 µM | > 50 µM | 3.47 µM | > 50 µM | 18.9 µM | > 50 µM |  |  | 13.5 µM | 39.7 µM | 35.3 µM | > 50 µM | 24 µM | > 50 µM
10 | O=C(c1ccco1)c1nc2cc(Cl)ccc2[n+]([O-])c1C(F)(F)F | 24.3 µM | 46.8 µM | 22.2 µM | 54.3 µM | 29.3 µM | > 100 µM | > 100 µM | > 100 µM | 10.8 µM | 44 µM | > 100 µM | > 100 µM | 27.5 µM | > 100 µM | 54.5 µM | > 100 µM
11 | COc1cc2c3c(n(CCCN)c(=O)c2cc1OC)-c1cc2c(cc1/C3=C\CCN)OCO2 | 9.09 µM | > 73.9 µM | 2.17 µM | > 40.4 µM | 2.6 µM | > 21.8 µM | 4.29 µM | > 26.1 µM | 2.01 µM | > 40.3 µM | 1.62 µM | 4.41 µM | 19.4 µM | > 100 µM | 3.74 µM | > 26.8 µM
12 | COc1ccc(-n2nnnc2-c2c[nH]c3c(F)cc(F)cc23)cc1 | > 100 µM | > 100 µM | > 100 µM | > 100 µM | > 100 µM | > 100 µM | > 100 µM | > 100 µM | > 100 µM | > 100 µM | 52.8 µM | > 100 µM | > 100 µM | > 100 µM | > 100 µM | > 100 µM
13 | CCc1c(C#N)c(S[C@@H](C(N)=O)c2ccccc2)nc(N(C)C)c1C#N |  |  |  |  | > 100 µM | > 100 µM | > 100 µM | > 100 µM | > 100 µM | > 100 µM | 4.65 µM | > 100 µM | > 100 µM | > 100 µM | 7.14 µM | > 100 µM
14 | Cn1c(/C=C(\C#N)c2ccccc2)nc2c(N3CCOCC3)nc(Cl)nc21 | 0.462 µM | 2.61 µM | 0.348 µM | 3.46 µM | 1.87 µM | 3.77 µM | 1.42 µM | 2.99 µM | 0.254 µM | 0.804 µM | 1.42 µM | 2.74 µM | 1.23 µM | 3.75 µM | 0.871 µM | 2.17 µM
15 | C=C1C(=O)O[C@H]2[C@H]1CC/C(Cn1cc(-c3cc(C(F)(F)F)cc(C(F)(F)F)c3)nn1)=C\CC[C@@]1(C)O[C@@H]21 | 0.19 µM | 0.484 µM | 0.238 µM | 0.601 µM | 1.04 µM | 2.53 µM | 1.1 µM | 2.48 µM | 0.221 µM | 0.522 µM | 0.178 µM | 0.422 µM | 0.33 µM | 1.62 µM | 0.841 µM | 2.34 µM
